Assay results taken from ChEMBL document CHEMBL3085639, “Novel camphane-based anti-tuberculosis agents with nanomolar activity” (2013).
Converted amounts (≈) assume the structure as drawn. Counter-ions that a name gives are not always drawn.

Key:
[1] = tested on: Mycobacterium tuberculosis; assay: Antimycobacterial activity against Mycobacterium tuberculosis H37Rv assessed as growth inhibition after 45 days by Canetti proportional method; type: functional; conditions: for MIC: Mycobacterium tuberculosis, H37Rv
[2] = tested on: Mycobacterium tuberculosis; assay: Antimycobacterial activity against Mycobacterium tuberculosis; type: functional

Row | Structure (SMILES) | -logMIC [1] | MIC [1] [µM] | MIC [2] [µM]
1 | CC1(C)[C@@H]2CC[C@@]1(C)[C@H](O)[C@@H]2NC(=O)c1ccco1 | 6.42 | 0.38 (≈ 0.1 µg/mL) | –
2 | CC[C@H](C)[C@H](O)C(=O)N[C@@H]1[C@H]2CC[C@@](C)([C@@H]1O)C2(C)C | 5.151 | 7.06 (≈ 2 µg/mL) | –
3 | CC[C@@H](CO)NCCN[C@@H](CC)CO [ETHAMBUTOL] | – | – | 10 (≈ 2.04 µg/mL)
4 | CC1(C)[C@@H]2CC[C@@]1(C)[C@H](O)[C@@H]2NP(=O)(c1ccccc1)c1ccccc1 | 4.868 | 13.6 (≈ 5.01 µg/mL) | –
5 | CCNC(=O)N[C@@H]1[C@H]2CC[C@@](C)([C@@H]1O)C2(C)C | 6.387 | 0.41 (≈ 0.0985 µg/mL) | –
6 | CC1(C)[C@@H]2CC[C@@]1(C)[C@H](O)[C@@H]2NC(=O)[C@@H](O)Cc1ccccc1 | 5.201 | 6.3 (≈ 2 µg/mL) | –
7 | CC1(C)[C@@H]2CC[C@@]1(C)[C@H](O)[C@@H]2NC(=O)CCc1ccccc1 | 6.481 | 0.33 (≈ 0.0995 µg/mL) | –
8 | CC1(C)[C@@H]2CC[C@@]1(C)[C@H](O)[C@@H]2NC(=O)c1cccnc1 | 6.444 | 0.36 (≈ 0.0988 µg/mL) | –
9 | CC1(C)[C@@H]2CC[C@@]1(C)[C@H](O)[C@@H]2NC(=O)/C=C/c1ccccc1 | 6.481 | 0.33 (≈ 0.0988 µg/mL) | –
10 | CC(C)[C@H](O)C(=O)N[C@@H]1[C@H]2CC[C@@](C)([C@@H]1O)C2(C)C | 6.131 | 0.74 (≈ 0.199 µg/mL) | –
11 | CSCC[C@H](O)C(=O)N[C@@H]1[C@H]2CC[C@@](C)([C@@H]1O)C2(C)C | 6.18 | 0.66 (≈ 0.199 µg/mL) | –
12 | CC1(C)[C@@H]2CC[C@@]1(C)[C@H](O)[C@@H]2NC(=O)[C@@H](O)c1ccccc1 | 4.783 | 16.5 (≈ 5.01 µg/mL) | –
13 | CC(=O)Oc1ccccc1C(=O)N[C@@H]1[C@H]2CC[C@@](C)([C@@H]1O)C2(C)C | 6.523 | 0.3 (≈ 0.0994 µg/mL) | –
14 | CC[C@@H](CO)NCCN[C@@H](CC)CO [ETHAMBUTOL HYDROCHLORIDE] | – | 7.22 | –
